Assay results published in patent US20070149576A1, “Means for protecting against technical materials” (priority 2003, published 2007).

Legend:
[1] = test system: Reticulitermes santonensis (termite); test: EN 117 determination of the activity threshold against Reticulitermes santonensis (laboratory test); format: in vivo; settings: for activity threshold against termites, EN 117 (with EN 84): after EN 84 leaching stress
[2] = test system: Hylotrupes bajulus (house longhorn beetle); test: EN 46 determination of the prophylactic effect on egg larvae of Hylotrupes bajulus (laboratory test); format: in vivo; settings: for activity threshold against wood-destroying beetles, EN 46 (with EN 84): after EN 84 leaching stress

CC1(C)C(C=C(Cl)Cl)C1C(=O)OC(C#N)c1ccc(F)c(Oc2ccccc2)c1 (stereo not shown) [cyfluthrin]
activity threshold against termites, EN 117 (with EN 84) [1]: 10-20 g/m^3 | activity threshold against wood-destroying beetles, EN 46 (with EN 84) [2]: <0.006 g/m^2 | activity threshold against wood-destroying beetles, EN 46 (without stress) [2]: <0.006 g/m^2

CCOC(=O)NCCOc1ccc(Oc2ccccc2)cc1 [fenoxycarb]
activity threshold against termites, EN 117 (with EN 84) [1]: ineffective | activity threshold against termites, EN 117 (without stress) ([1]; without stress): ineffective | activity threshold against wood-destroying beetles, EN 46 (with EN 84) [2]: 0.050 g/m^2 | activity threshold against wood-destroying beetles, EN 46 (without stress) [2]: 0.005 g/m^2
